Laboratory results published in US20160184248A1, “COMPOSITIONS AND METHODS OF USE OF -HYDROXY-METHYLBUTYRATE (HMB) RESULTING IN AN ACUTE ENDOCRINE RESPONSE” (University of Central Florida Research Foundation Inc., priority 2014, published 2016).

How the values were obtained:
[1] = healthy young or old adults; cited from earlier work
muscle proteolysis = settings: isolated rat muscle, in vitro; cited from earlier work
testosterone = assay: Plasma testosterone after HMB-FA ingestion and resistance exercise; assay type: in vivo, human; settings: acute ingestion and training session
Excerpt: (§1) Twenty resistance trained men (22.3±2.4 y, 1.8±0.1 m, […]) volunteered to participate in this study. Participants were randomly separated into one of two groups: ingestion of HMB free-acid (HMB-FA; n=10) or ingestion of placebo (PL; n=10). Following an explanation of all procedures, risks, and benefits, each participant gave his informed consent prior to participation in this study. The Institutional Review Board for the protection of human subjects of the University of Central Florida approved the research protocol. For inclusion in this study, participants were required to have a minimum of one year of resistance training experience, particularly in the squat exercise. Participants were not permitted to use any additional nutritional supplements or medications while enrolled in this study. Screening for nutritional and hormonal supplements was accomplished via a health history questionnaire completed during participant recruitment.
(§2) The investigation utilized a placebo-controlled, double-blind, randomized design. Participants reported to the laboratory on two occasions. […] Total training volume, calculated as repetitions×load, was recorded for further analysis. […]
(§3) Prior to analysis, all data were assessed to ensure normal distribution, homogeneity of variance, and sphericity. […]

insulin [2] = assay: Serum insulin response to the exercise protocol after HMB ingestion; assay type: in vivo, human; settings: acute ingestion and training session
Excerpt: as §1, §2, §3

[3] = after HMB is fed; cited from earlier work
insulin [4] = settings: HMB treated rats, prolonged supplementation; cited from earlier work
muscle damage = settings: initiated 30 min prior to an acute bout of exercise; cited from earlier work
[5] = in vivo; cited from earlier work
growth hormone = assay: Growth hormone response to resistance exercise after HMB-FA ingestion (commercial kit); assay type: in vivo, human
Excerpt: as §1
The investigation utilized a placebo-controlled, double-blind, randomized design. Participants reported to the laboratory on two occasions. On the first visit (T1), participants were tested for their one-repetition maximum (1-RM) on the barbell back squat, dead lift, and barbell split squat exercises. Participants were instructed to refrain from any form of exercise for a minimum of 72 hours prior to the resistance training bout (T2). On T2, participants completed an intense lower-body resistance exercise session, which consisted of four sets of the barbell back squat, dead lift, and barbell split squat exercises. The barbell back squat exercise was performed with 80% of the participant's 1-RM and the dead lift and barbell split squat exercises were performed with 70% of the participant's 1-RM. Rest intervals were set at 90 s between each set and between exercises. […] Total training volume, calculated as repetitions×load, was recorded for further analysis. […]
as §3

[6] = test system: insulin-like growth factor (IGF-1); assay: Plasma IGF-1 response to resistance exercise after HMB-FA ingestion (commercial kit); assay type: in vivo, human
Excerpt: as §1
The investigation utilized a placebo-controlled, double-blind, randomized design. Participants reported to the laboratory on two occasions. On the first visit (T1), participants were tested for their one-repetition maximum (1-RM) on the barbell back squat, dead lift, and barbell split squat exercises. Participants were instructed to refrain from any form of exercise for a minimum of 72 hours prior to the resistance training bout (T2). On T2, participants completed an intense lower-body resistance exercise session, which consisted of four sets of the barbell back squat, dead lift, and barbell split squat exercises. The barbell back squat exercise was performed with 80% of the participant's 1-RM and the dead lift and barbell split squat exercises were performed with 70% of the participant's 1-RM. Rest intervals were set at 90 s between each set and between exercises. Participants were encouraged to perform as many repetitions as possible up to 10 repetitions for each set. Total training volume, calculated as repetitions×load, was recorded for further analysis.
The HMB-FA supplement consisted of one gram of β-hydroxy-β-methylbutyrate in the free-acid form (Beta-TOR®, Metabolic Technologies Inc., Ames, Iowa), reverse osmosis water, de-bittering agent, flavor, stevia extract, and potassium carbonate. Each serving of placebo contained one gram of polydextrose and was identical to the HMB-FA supplement in appearance and taste. The HMB-FA and PL treatments were produced and supplied by Metabolic Technologies Inc. (Ames, Iowa). One serving of HMB-FA or PL was consumed 30 minutes prior to the exercise session. All HMB-FA and PL ingestion took place in the Human Performance Lab and was witnessed by one of the investigators. […]
as §3

[7] = Plasma HMB by gas chromatography-mass spectrometry after HMB-FA ingestion and resistance exercise; assay type: in vivo, human; settings: 1 g HMB-FA 30 min prior to exercise, p<0.01
Excerpt: as §1, with “Participants were not permitted to use any additional nutritional supplements or medications while enrolled in this study. Screening for nutritional and hormonal supplements was accomplished via a health history questionnaire completed during participant recruitment.” left out
The investigation utilized a placebo-controlled, double-blind, randomized design. […] Total training volume, calculated as repetitions×load, was recorded for further analysis. […]
Plasma HMB was analyzed by Metabolic Technologies Inc. by gas chromatography-mass spectrometry with previously outlined methods to confirm HMB appearance in the plasma (17). Myoglobin concentration was determined via a Myoglobin ELISA kit (Calbiotec, Cat no: MG017C, Spring Valley, Calif., USA) and prepared per manufacturer's instructions. Determination of serum immunoreactivity values was determined using a BioTek Eon spectrophotometer (BioTek, Winooski, Vt., USA). […]

[8] = AUC over PRE, IP, 30P, trapezoidal, p=0.02

Compound	Side effects [1]	Inhibition of muscle proteolysis (muscle proteolysis)	Circulating testosterone levels (testosterone)	Effect on the insulin response to the exercise protocol (insulin [2])	Loss of HMB to urine [3]	Resting insulin concentrations (insulin [4])	Attenuating muscle damage and ameliorating inflammatory response compared with CaHMB (muscle damage)	Absorption compared with CaHMB [5]	Tissue clearance compared with CaHMB [5]	Growth hormone concentration, elevation vs PL (growth hormone; 30P, p=0.100)	Growth hormone AUC vs PL (growth hormone; [8])	Growth hormone concentration, elevation vs PL (growth hormone; IP, 1 g HMB-FA 30 min prior to exercise, p=0.021)	IGF-1 concentration vs PL ([6]; 30P)	IGF-1 AUC vs PL [6, 8]	IGF-1 concentration vs PL ([6]; IP)	IGF-1 concentration vs PL ([6]; PRE (baseline), supplement given 15 min before the PRE blood draw, p=0.012)	Plasma HMB concentrations ([7]; 30 min post-exercise (30P))	Plasma HMB concentrations ([7]; immediately post-exercise (IP))
CC(C)(O)CC(=O)O [HMB, β-hydroxy-β-methylbutyrate]	no side effects	potent inhibitor of muscle proteolysis	no differences	unable to demonstrate any effect	20-50%	significant increases	–	–	–	–	–	–	–	–	–	–	–	–
CC(C)(O)CC(=O)O [HMB-FA, β-hydroxy-β-methylbutyric acid]	–	–	–	–	–	–	more efficacious	absorbed quicker	greater tissue clearance	no difference between the groups	significantly higher GH response	significantly higher than PL	No differences were observed between the groups	greater IGF-1 response	No differences were observed between the groups	elevated at baseline	significantly elevated	significantly elevated
